Measurements taken from patent US9822114B2, “Tricyclic oxazolidinone antibiotic compounds” (Idorsia Pharmaceuticals Ltd, priority 2008, dated 2017).

System: M. catarrhalis A894
Test: Minimal inhibitory concentration (MIC), microdilution method in cation-adjusted Mueller-Hinton Broth (CLSI M7-A7)
Assay type: cell-based
Details: Moraxella catarrhalis, strain A894
Experimental: Minimal inhibitory concentrations (MICs; mg/1) were determined in cation-adjusted Mueller-Hinton Broth by a microdilution method following the description given in “Methods for Dilution Antimicrobial Susceptibility Tests for Bacteria that Grow Aerobically”, Approved standard, 7th ed., Clinical and Laboratory Standards Institute (CLSI) Document M7-A7, Wayne, Pa., USA, 2006.

Compound	MIC
O=C1COc2ccc(N3C[C@H](CCCN[C@H]4Cn5c(=O)ccc6ccc(F)c4c65)OC3=O)nc2N1 [Example 193, (R)-9-fluoro-1-{3-[(S)-2-oxo-3-(3-oxo-3,4-dihydro-2H-pyrido[3,2-b][1,4]oxazin-6-yl)-oxazolidin-5-yl]-propylamino}-1,2-dihydro-pyrrolo[3,2,1-ij]quinolin-4-one]	≤ 0.031 µg/mL
O=C1COc2ccc(N3C[C@@H](CCCN[C@H]4Cn5c(=O)ccc6ccc(F)c4c65)OC3=O)nc2N1 [Example 194, (R)-9-fluoro-1-{3-[(R)-2-oxo-3-(3-oxo-3,4-dihydro-2H-pyrido[3,2-b][1,4]oxazin-6-yl)-oxazolidin-5-yl]-propylamino}-1,2-dihydro-pyrrolo[3,2,1-ij]quinolin-4-one]	≤ 0.031 µg/mL
O=C1CSc2ccc(N3C[C@H](CCCN[C@H]4Cn5c(=O)ccc6ccc(F)c4c65)OC3=O)nc2N1 [Example 195, (R)-9-fluoro-1-{3-[(S)-2-oxo-3-(3-oxo-3,4-dihydro-2H-pyrido[3,2-b][1,4]thiazin-6-yl)-oxazolidin-5-yl]-propylamino}-1,2-dihydro-pyrrolo[3,2,1-ij]quinolin-4-one]	≤ 0.031 µg/mL
O=C1CSc2ccc(N3C[C@@H](CCCN[C@H]4Cn5c(=O)ccc6ccc(F)c4c65)OC3=O)nc2N1 [Example 196, (R)-9-fluoro-1-{3-[(R)-2-oxo-3-(3-oxo-3,4-dihydro-2H-pyrido[3,2-b][1,4]thiazin-6-yl)-oxazolidin-5-yl]-propylamino}-1,2-dihydro-pyrrolo[3,2,1-ij]quinolin-4-one]	≤ 0.031 µg/mL

Same assay, conditions: strain A894

Compound	MIC for M. catarrhalis A894
(1R,2R)-2-(1-hydroxy-1-methyl-ethyl)-1-{3-[(R)-2-oxo-3-(3-oxo-3,4-dihydro-2H-benzo[1,4]thiazin-6-yl)-oxazolidin-5-yl]-propylamino}-1,2-dihydro-pyrrolo[3,2,1-ij]quinolin-4-one and (1S,2S)-2-(1-hydroxy-1-methyl-ethyl)-1-{3-[(R)-2-oxo-3-(3-oxo-3,4-dihydro-2H-benzo[1,4]thiazin-6-yl)-oxazolidin-5-yl]-propylamino}-1,2-dihydro-pyrrolo[3,2,1-ij]quinolin-4-one [Example 170]	0.25 µg/mL
(1R,2R)-2-hydroxymethyl-1-{3-[(R)-2-oxo-3-(3-oxo-3,4-dihydro-2H-benzo[1,4]thiazin-6-yl)-oxazolidin-5-yl]-propylamino}-1,2-dihydro-pyrrolo[3,2,1-ij]quinolin-4-one and (1S,2S)-2-hydroxymethyl-1-{3-[(R)-2-oxo-3-(3-oxo-3,4-dihydro-2H-benzo[1,4]thiazin-6-yl)-oxazolidin-5-yl]-propylamino}-1,2-dihydro-pyrrolo[3,2,1-ij]quinolin-4-one [Example 163]	0.031 µg/mL
(1R,2R)-2-hydroxymethyl-1-{3-[(S)-2-oxo-3-(3-oxo-3,4-dihydro-2H-benzo[1,4]thiazin-6-yl)-oxazolidin-5-yl]-propylamino}-1,2-dihydro-pyrrolo[3,2,1-ij]quinolin-4-one and (1S,2S)-2-hydroxymethyl-1-{3-[(S)-2-oxo-3-(3-oxo-3,4-dihydro-2H-benzo[1,4]thiazin-6-yl)-oxazolidin-5-yl]-propylamino}-1,2-dihydro-pyrrolo[3,2,1-ij]quinolin-4-one [Example 164]	0.031 µg/mL
(1R,2R)-2-methoxymethyl-1-{3-[(R)-2-oxo-3-(3-oxo-3,4-dihydro-2H-benzo[1,4]thiazin-6-yl)-oxazolidin-5-yl]-propylamino}-1,2-dihydro-pyrrolo[3,2,1-ij]quinolin-4-one and (1S,2S)-2-methoxymethyl-1-{3-[(R)-2-oxo-3-(3-oxo-3,4-dihydro-2H-benzo[1,4]thiazin-6-yl)-oxazolidin-5-yl]-propylamino}-1,2-dihydro-pyrrolo[3,2,1-ij]quinolin-4-one [Example 165]	0.125 µg/mL
(1R,2R)-4-oxo-1-{3-[(R)-2-oxo-3-(3-oxo-3,4-dihydro-2H-benzo[1,4]thiazin-6-yl)-oxazolidin-5-yl]-propylamino}-1,2-dihydro-4H-pyrrolo[3,2,1-ij]quinoline-2-carboxylic acid methyl ester and (1S,2S)-4-oxo-1-{3-[(R)-2-oxo-3-(3-oxo-3,4-dihydro-2H-benzo[1,4]thiazin-6-yl)-oxazolidin-5-yl]-propylamino}-1,2-dihydro-4H-pyrrolo[3,2,1-ij]quinoline-2-carboxylic acid methyl ester [Example 161]	0.125 µg/mL
(1R,2R)-4-oxo-1-{3-[(S)-2-oxo-3-(3-oxo-3,4-dihydro-2H-benzo[1,4]thiazin-6-yl)-oxazolidin-5-yl]-propylamino}-1,2-dihydro-4H-pyrrolo[3,2,1-ij]quinoline-2-carboxylic acid methyl ester and (1S,2S)-4-oxo-1-{3-[(S)-2-oxo-3-(3-oxo-3,4-dihydro-2H-benzo[1,4]thiazin-6-yl)-oxazolidin-5-yl]-propylamino}-1,2-dihydro-4H-pyrrolo[3,2,1-ij]quinoline-2-carboxylic acid methyl ester [Example 162]	0.25 µg/mL
(1R,2S)-2-methyl-1-{3-[(R)-2-oxo-3-(3-oxo-3,4-dihydro-2H-benzo[1,4]thiazin-6-yl)-oxazolidin-5-yl]-propylamino}-1,2-dihydro-pyrrolo[3,2,1-ij]quinolin-4-one and (1S,2R)-2-methyl-1-{3-[(R)-2-oxo-3-(3-oxo-3,4-dihydro-2H-benzo[1,4]thiazin-6-yl)-oxazolidin-5-yl]-propylamino}-1,2-dihydro-pyrrolo[3,2,1-ij]quinolin-4-one [Example 166]	≦0.031 mg/l
(1R,2S)-2-methyl-1-{3-[(R)-2-oxo-3-(3-oxo-3,4-dihydro-2H-pyrido[3,2-b][1,4]thiazin-6-yl)-oxazolidin-5-yl]-propylamino}-1,2-dihydro-pyrrolo[3,2,1-ij]quinolin-4-one and (1S,2R)-2-methyl-1-{3-[(R)-2-oxo-3-(3-oxo-3,4-dihydro-2H-pyrido[3,2-b][1,4]thiazin-6-yl)-oxazolidin-5-yl]-propylamino}-1,2-dihydro-pyrrolo[3,2,1-ij]quinolin-4-one [Example 168]	≦0.031 mg/l
(1R,2S)-2-methyl-1-{3-[(S)-2-oxo-3-(3-oxo-3,4-dihydro-2H-benzo[1,4]thiazin-6-yl)-oxazolidin-5-yl]-propylamino}-1,2-dihydro-pyrrolo[3,2,1-ij]quinolin-4-one and (1S,2R)-2-methyl-1-{3-[(S)-2-oxo-3-(3-oxo-3,4-dihydro-2H-benzo[1,4]thiazin-6-yl)-oxazolidin-5-yl]-propylamino}-1,2-dihydro-pyrrolo[3,2,1-ij]quinolin-4-one [Example 167]	≦0.031 mg/l
(1R,2S)-2-methyl-1-{3-[(S)-2-oxo-3-(3-oxo-3,4-dihydro-2H-pyrido[3,2-b][1,4]thiazin-6-yl)-oxazolidin-5-yl]-propylamino}-1,2-dihydro-pyrrolo[3,2,1-ij]quinolin-4-one and (1S,2R)-2-methyl-1-{3-[(S)-2-oxo-3-(3-oxo-3,4-dihydro-2H-pyrido[3,2-b][1,4]thiazin-6-yl)-oxazolidin-5-yl]-propylamino}-1,2-dihydro-pyrrolo[3,2,1-ij]quinolin-4-one [Example 169]	≦0.031 mg/l
(RS)-1-({[(R)-3-(4-ethoxy-phenyl)-2-oxo-oxazolidin-5-ylmethyl]-amino}-methyl)-9-fluoro-1,2-dihydro-pyrrolo[3,2,1-ij]quinolin-4-one [Example 36]	8 µg/mL
N—((RS)-9-fluoro-4-oxo-1,2-dihydro-4H-pyrrolo[3,2,1-ij]quinolin-1-yl)-N-{3-[(R)-2-oxo-3-(3-oxo-3,4-dihydro-2H-benzo[1,4]thiazin-6-yl)-oxazolidin-5-yl]-propyl}-acetamide and (RS)-1-{3-[(R)-3-(4-acetyl-3-oxo-3,4-dihydro-2H-benzo[1,4]thiazin-6-yl)-2-oxo-oxazolidin-5-yl]-propylamino}-9-fluoro-1,2-dihydro-pyrrolo[3,2,1-ij]quinolin-4-one [Example 172]	0.25 µg/mL
